Literature values, collected in patent US6338847B1, “Compositions and methods to disinfect contact lenses” (Allergan, priority 1993, dated 2002).

Tested on: cyst form of acanthamoeba

Question: For OO [hydrogen peroxide], which “survival of cysts exposed to hydrogen peroxide” value (exposed for two hours) is on record?
Answer: survived after two weeks

B1: lysozyme (protein, UniProt P61626 19-148, looked up)
Lysozyme C: KVFERCELARTLKRLGMDGYRGISLANWMCLAKWESGYNTRATNYNAGDRSTDYGIFQINSRYWCNDGKTPGAVNACHLSCSALLQDNIADAVACAKRVVRDPQGIRAWVAWRNRCQNRDVRQYVQGCGV
notes: cellulose and/or chitin decomposing enzyme component; a primary tear protein
Question: With B1 as the molecule, how does the “time to killing all the cysts” value (lysozyme included in the hydrogen peroxide solution) read?
Answer: ≤ 30 min
